# “Also recorded” adds a separate entry of the source. Like-named read-outs stand apart in the source and are kept apart here.
# Assays:
# [1] = tested on: extracellular L. donovani amastigotes; assay: Extracellular assay on amastigotes freshly isolated from mouse spleens, 72 h at 26°C, Alamar blue; format: cell-based, Leishmania donovani; conditions: for EC50: Leishmania donovani; for Cellular (leishmanicidal) activity in words: extracellular assay
# [2] = tested on: bone marrow derived macrophages
# [3] = tested on: intracellular L. donovani amastigotes; assay: Intracellular amastigote assay: infected macrophages treated 72 h, saponin lysis, transformation to promastigotes, Alamar blue; format: cell-based, Leishmania donovani; conditions: for Effect on intracellular amastigotes at the highest concentration tested: 45 µM, after an "activity valley" at 15 µM; for EC50: Leishmania donovani, Macrophage
# [4] = molecular target: L. donovani NMT (Leishmania donovani, UniProt D0AB09); assay: biochemical; format: biochemical
# [5] = 72 h, read-out: EC50 extracellular L. donovani amastigotes
# [6] = NMT inhibitors, 72 h in infected macrophages, n.p. = not possible
# [7] = NMT inhibitors, 72 h at 26°C, read-out: EC50 extracellular L. donovani amastigotes
# [8] = 72 h, 3-day treatment, splenic amastigotes from Rag2−/− mice, incubation at 26°C, read-out: EC50 ± SD extracellular L. donovani amastigotes
# [9] = 72 h, 3-day treatment of infected bone marrow derived macrophages, mean of biological repeats, read-out: EC50 ± SD intracellular L. donovani amastigotes
# [10] = Figure 3, representative dose response curve, 72 h incubation, read-out: EC50 intracellular L. donovani amastigotes, representative plot
# Sequence of L. donovani NMT (D0AB09 1-421): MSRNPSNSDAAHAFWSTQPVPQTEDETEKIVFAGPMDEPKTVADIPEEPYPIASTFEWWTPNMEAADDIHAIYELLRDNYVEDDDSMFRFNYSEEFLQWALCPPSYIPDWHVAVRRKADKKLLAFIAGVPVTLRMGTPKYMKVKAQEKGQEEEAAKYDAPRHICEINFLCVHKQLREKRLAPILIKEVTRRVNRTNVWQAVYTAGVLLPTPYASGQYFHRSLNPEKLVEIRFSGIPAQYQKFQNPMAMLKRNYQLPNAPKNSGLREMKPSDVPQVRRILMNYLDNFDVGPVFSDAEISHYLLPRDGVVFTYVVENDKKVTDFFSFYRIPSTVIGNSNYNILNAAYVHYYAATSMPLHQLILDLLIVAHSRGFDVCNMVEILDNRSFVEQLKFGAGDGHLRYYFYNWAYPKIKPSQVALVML
compound,measurement,setting,value
O=C(Cc1ccc(F)cc1)Nc1ccc2[nH]cc(C3CCNCC3)c2c1 [IMP-0000556],EC50,[1]; [5],> 30000 nM
same,Cellular (leishmanicidal) activity in words,[1],did not result in any leishmanicidal activity
same,LD50 bone marrow derived macrophages,"[2]; female, BALB/c, mouse, 72 h",>45 µM
Cc1nn(C)c(C)c1NS(=O)(=O)c1c(Cl)cc(-c2ccnc(N3CCNCC3)c2)cc1Cl [DDD85646],EC50,[1]; [5],8000 nM
same,LD50 bone marrow derived macrophages,[2]; 72 h,>45 µM
same,Effect on intracellular amastigotes at the highest concentration tested,[3],complete killing of the parasites; also recorded: all amastigotes cleared from the macrophages
same,EC50 intracellular L. donovani amastigotes,[3]; [6],n.p.
N[C@@H](CC(=O)N1C[C@H](CO)[C@@H](c2ccc(Cl)cc2)C1)Cc1ccc(Cl)cc1 [IMP-0000195],EC50,[1]; [7],12000 nM
same,LD50 bone marrow derived macrophages,"[2]; female, BALB/c, mouse, 72 h",12 µM
same,Host cell toxicity (in words),[2]; macrophages,equally toxic to macrophages; also recorded: host cell toxicity and no selectivity
same,IC50,[4]; read-out: IC50 L. donovani NMT,76.5 nM
"CCCCCCCCCCCCCCCCOP(=O)([O-])OCC[N+](C)(C)C [Miltefosine, miltefosine]",EC50,[1]; [8],7850 ± 500 nM
same,EC50,[3]; [9],1380 ± 60 nM
same,EC50,[3]; [10],1450 nM
Cc1nn(C)c(C)c1N(C(F)F)[S+](=O)([O-])c1c(Cl)cc(-c2ccnc(N3CCNCC3)c2)cc1Cl [DDD100887],EC50,[1]; [7],660 nM
same,LD50 bone marrow derived macrophages,"[2]; female, BALB/c, mouse, 72 h",23 µM
same,EC50,"[3]; NMT inhibitors, 72 h in infected macrophages, n.p. = not possible, read-out: EC50 intracellular L. donovani amastigotes",190 nM
c1cncc(CCNCc2cccc(-c3cccc(CN4CCc5ncsc5C4)c3)c2)c1 [IMP-0000197],EC50,[1]; [7],16000 nM
same,Cellular (leishmanicidal) activity in words,[1],moderate cellular activity
same,Concentration up to which no host cell cytotoxicity was seen,[2],at least 45 µM
same,LD50 bone marrow derived macrophages,"[2]; female, BALB/c, mouse, 72 h",50 µM
same,Activity in the intracellular assay (in words),[3],no activity
CN1CCC(N(C)c2nc(N(C)CCC#N)c3sccc3n2)CC1 [IMP-0000083],EC50,[1]; [7],24000 nM
same,Cellular (leishmanicidal) activity in words,[1],moderate cellular activity
same,Host cell toxicity (in words),[2],no toxicity to host cells
same,LD50 bone marrow derived macrophages,[2]; 72 h,>45 µM
same,Concentration up to which no host cell cytotoxicity was seen,"[2]; female, BALB/c, mouse, 72 h",at least 45 µM
same,IC50,[4],281 nM
same,Fold less potent in inhibition of LdNMT than IMP-0000195,[4]; relative to IMP-0000195,~4 fold
same,Activity in the intracellular assay (in words),[3],no activity
Cc1nn(C)c(C)c1NS(=O)(=O)c1c(Cl)cc(-c2ccnc(N3CCN(C)CC3)c2)cc1Cl [DDD86211],EC50,[1]; [7],180 nM
same,LD50 bone marrow derived macrophages,"[2]; female, BALB/c, mouse, 72 h",>45 µM
same,Effect on intracellular amastigotes at the highest concentration tested,[3],complete killing of the parasites; also recorded: all amastigotes cleared from the macrophages
same,EC50 intracellular L. donovani amastigotes,[3]; [6],n.p.
"C[C@@H]1[C@H](O)[C@@H](C)/C=C/C=C/C=C/C=C/C=C/C=C/C=C/[C@H](O[C@@H]2O[C@H](C)[C@@H](O)[C@H](N)[C@@H]2O)C[C@@H]2O[C@](O)(C[C@@H](O)C[C@@H](O)[C@H](O)CC[C@@H](O)C[C@@H](O)CC(=O)O[C@H]1C)C[C@H](O)[C@H]2C(=O)O [Amphotericin B, amphotericin B]",EC50,[1]; [8],50 ± 11 nM
same,EC50,[3]; [9],30 ± 9 nM
same,EC50,[3]; [10],29 nM
